Each structure is given as a SMILES string.

The target of series [1] is T1, TNFα (Homo sapiens, UniProt P01375). Kind of series: TNFα human whole blood screening assay (CD11b on granulocytes, zymosan challenge). The format is cell-based. More on the design: a human whole blood assay driven by endogenously expressed TNFα; from tissue; host or cells: human whole blood. Particulars: human whole blood IC50 multiplied by unbound fraction from plasma protein binding; read-out: CD11b in hWB, free IC50. The method, then: The compounds according to the Examples were assessed in a human whole blood assay driven by endogenously expressed TNFα by measuring the expression of CD11b on granulocytes in human whole blood challenged with zymosan. A serial diluted compound was pre-incubated with human whole blood for 1 h at 37° C./5% CO2. Zymosan (Invivogen, Tlrl-zyn) was added (final assay concentration […] in a total volume of 100 μl) with thorough mixing and incubated for 3 h at 37° C./5% CO2. The samples were then incubated with 10 μl antibody cocktail containing APC-conjugated anti-human CD45 antibody (Biolegend, cat #304012) and PE-conjugated anti-human CD11b antibody (Biolegend, cat #101208) for 30 min at 4° C. The blood was fixed/lysed for 10-15 min at 37° C. using FACS/lysing solution (BD sciences, cat #558049) and analyzed with CytoFlex S (Beckman Coulter). The number of single cells (SSC-A, SSC—W) positive for CD45 and expressing CD11b was determined using FlowJo software (BD Biosciences). Inhibition of CD11b activation was calculated against DMSO control. […]
T1 sequence (P01375 77-233 limits assumed): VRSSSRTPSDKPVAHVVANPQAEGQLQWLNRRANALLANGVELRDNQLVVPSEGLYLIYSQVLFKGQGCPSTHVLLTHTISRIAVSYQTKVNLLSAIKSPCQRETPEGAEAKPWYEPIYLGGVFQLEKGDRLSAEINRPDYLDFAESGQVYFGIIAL
A calculated IC50 for the free compound (free IC50) that considers the extent of fraction unbound in blood was determined by multiplying the IC50 generated from the human whole blood screening assay by the unbound fraction, generated from the plasma protein binding assay.

In series [2] the target is T1, TNFα. Kind of series: Human dermal fibroblast cell potency assay (IL-8 HTRF). It counts as cell-based. More on the design: purchased R&D biosystem (R&D Systems) 210-TA-020/CF. Particulars: human dermal fibroblasts, hTNFα 10 ng/mL, 24 h; for Emax: read-out: HDF_IL-8, Emax; for IC50: read-out: HDF_IL-8, IC50. As to the method:
The potency of compounds was examined in Human dermal fibroblast cells (HDF). […] When used for assay, 40 μL of HDF suspension (2000 cell/well) was seeded into each well of 384-well plates (Corning 3764). After overnight culture, replenish fresh culture medium with 5% fetal bovine serum. A serial dilution of work solution of tested compound was made in DMSO with 1000× of final concentration, and 50 nL of compound DMSO solution was transferred into another set of 384-well plates by Echo, and incubated with 10 μL of recombinant hTNFα (R&D biosystem, Cat #210-TA-020/CF) for 1 h at 37° C. The compound/hTNFα mixture was then transferred to the 384-plate containing HDF, and then incubated at 37° C. with 5% CO2 for 24 h. The final concentration of hTNFα is 10 ng/mL.
After incubation, 16 μL of induced cell supernatant was transferred to a new 384-well Optiplate well to mix with 4 μL of IL-8 antibody cocktail (Revvity #62HIL08PEH). After overnight incubation, the plate was read using EnSight™ Multimode Microplate Reader (Perkin Elmer) for HTRF signal.
The percentage of inhibition was calculated by the following formula: % inhibition=(positive control−Sample)/(positive control−negative control)*100
Positive control: HTRF reading of cells with hTNFα stimulation.
Negative control: HTRF reading of cells without hTNFα stimulation.
Sample: HTRF reading of cells with compound at specific concentration and hTNFα stimulation
The % inhibition was plotted against compound concentration in logarithmic scale and the IC50 was rendered using 4-parameter nonlinear regression (GraphPad Prism).
Background: Time-resolved FRET reads energy transfer from a long-lived donor to a nearby acceptor.

In series [3] the target is T1, TNFα. Nature of the series: HEK-Blue hTNFα reporter assay. Conditions: HEK-Blue hTNFα reporter cells; for Emax: read-out: TNFα reporter, Emax. More on the design: purchased R&D biosystem (R&D Systems) 210-TA-020/CF. The format is cell-based. Put shortly:
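Compounds preincubated 1 h at 37 °C with recombinant hTNFα ([…]), then added to HEK293 NF-κB-SEAP reporter cells, 10000 cells/well, 24 h at 37 °C. SEAP read by QUANTI-Blue at OD620; % inhibition versus stimulated and unstimulated controls, IC50 by 4-parameter fit.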

In series [4] the test system is human induced pluripotent stem cell-derived cardiomyocytes (hiPSC-CMs). Particulars: 10 μM.
Protocol: The MEA study was designed to assess the in vitro inhibitory effect of compounds on extracellular field potential (EFP) of human induced pluripotent stem cell-derived cardiomyocytes (hiPSC-CMs) using the Maestro Pro multielectrode arrays system. The concentration response relationship was determined for each compound at 10 μM and 3 μM in duplicate to calculate the % change in EFP parameters.
hiPSC-CMs (Help Stem Cell Innovations Co.) were seeded in fibronectin-coated CytoView MEA 96-White plate at 20000 cells/well. The next day 2/3 of the plating medium volume was removed and replaced by maintenance media. Half of the maintenance medium was removed and replaced every 2 days. On day 6, compounds were made 2× final concentration (20 μM and 6 μM) in maintenance media. Half of the medium was removed from the wells and an equal volume of the appropriate treatment mix was added, and the EFP signal was recorded. […] Data that meet the above criteria for EFP recording quality were further analyzed as described in the following steps: […]
Axis Navigator 2.0.4. software was used to extract the peak current from the original data. The percentage of amplitude change from baseline was calculated using the following equation.
Two important readouts in MEA assay are used to evaluate risk of QT prolongation. […]
Series [5] can be described thus: Caco-2 assay (permeability). It counts as in vitro ADME. Particulars: human, Caco-2, pH 7.4; for Papp A→B at 2 h, 5 μM: apical to basolateral; for efflux ratio at 2 h, 5 μM: read-out: Caco-2, ER (efflux ratio). As to the method: Cells were cultivated for 14-18 days in a cell culture incubator at 37° C., 5% CO2, 95% relative humidity. Cell culture medium was replaced every other day, beginning no later than 24 hours after initial plating.
10 mM stock solutions of test compounds were prepared in DMSO. The stock solutions of positive controls were prepared in DMSO at the concentration of 10 mM.
1) Medium was removed from the reservoir and each Transwell insert and replaced with prewarmed fresh culture medium.
2) Transepithelial electrical resistance (TEER) across the monolayer was measured using Millicell Epithelial Volt-Ohm measuring system (Millipore, USA).
3) The Plate was returned to the incubator once the measurement was done.
1) The Caco-2 plate was removed from the incubator and washed twice with pre-warmed HBSS (10 mM HEPES, pH 7.4), and then incubated at 37° C. for 30 minutes.
The final concentration of DMSO in the incubation system was 0.5%.
3) To determine the rate of drug transport in the apical to basolateral direction.
4) To determine the rate of drug transport in the basolateral to apical direction.
5) The plates were incubated at 37° C. for 2 hours.
6) At the end of the incubation, 50 μL samples from donor sides (apical compartment for Ap→Bl flux, and basolateral compartment for Bl→Ap) and receiver sides (basolateral compartment for Ap→Bl flux, and apical compartment for Bl→Ap) were transferred to wells of a new 96-well plate, followed by the addition of 4 volume of cold methanol containing appropriate internal standards (IS). Samples were vortexed for 5 minutes and then centrifuged at 3,220 g for 40 minutes. An aliquot of 100 μL of the supernatant was mixed with an appropriate volume of ultra-pure water before LC-MS/MS analysis.
100 μL of the Lucifer yellow solution was added to each Transwell insert (apical compartment), followed by filling the wells in the receiver plate (basolateral compartment) with 300 μL of HBSS (10 mM HEPES, pH 7.4).
A general note: Caco-2 monolayers are a common model of the intestinal barrier.

Where [6] appears, read: SEAP readout, read-out: IC50 Range.

As to `CN1C(=O)c2cccc(OC(F)F)c2[C@H]2C[C@@H]1c1nc3ccc(-c4cnc(C5(N)CCC5)nc4)cc3n12` [Comp. Ex #1, reference compound], the IC50 at TNFα [1] was 9.3 nM; at TNFα [2] it was 6.7 nM; on TNFα [3] (read-out: TNFα reporter, IC50), 4.8 nM. The Emax at TNFα [2] was 93%; on TNFα [3] it was 96%. The “Cardiomyocytes FPDc prolong.” value in series [4] is given as greater than 20%. Further, the “EAD (early afterdepolarization)” value in series [4] is on record as “EAD”.
Take `CN1C(=O)c2cccc(OC(F)F)c2[C@H]2C[C@@H]1c1nc3ccc(-c4ccc(P(C)(C)=O)nc4)cc3n12` [Comp. Ex #4, reference compound]: in series [5], the Papp A→B at 2 h, 5 μM is 0.6 ×10⁻⁶ cm/s and the efflux ratio at 2 h, 5 μM was 47.5. Besides, the Emax at TNFα [3] came out at 82%. For the same compound, the IC50 on TNFα [3] (read-out: TNFα reporter, IC50) is 7.9 nM.
As to `CN1C(=O)c2cccc(OC(F)F)c2[C@H]2C[C@@H]1c1nn3ccc(-c4cnc(C5(N)CCC5)nc4)cc3c12` [Example 15], the IC50 at TNFα [1] was 2.1 nM; on TNFα [2] it was 2.8 nM; on TNFα [3] (setting [6]), less than 25 nM; on TNFα [3] (read-out: TNFα reporter, IC50), 4.1 nM. For the same compound, the Emax was found to be 97% on TNFα [2] and 95% on TNFα [3].
Turning to `CN1C(=O)c2cccc(OC(F)F)c2[C@H]2C[C@@H]1c1nn3ccc(-c4ccc(P(C)(C)=O)nc4)cc3c12` [Example 20], in series [5], the Papp A→B at 2 h, 5 μM was 1.7 ×10⁻⁶ cm/s and the efflux ratio at 2 h, 5 μM came out at 22.8. The IC50 at TNFα [3] (setting [6]) is less than 25 nM. Besides, at TNFα [3], the Emax amounted to 89%. Also, the IC50 at TNFα [3] (read-out: TNFα reporter, IC50) amounted to 3.8 nM.
Consider `[2H]C([2H])([2H])N1C(=O)c2cccc(OC(F)F)c2[C@H]2C[C@@H]1c1nn3ccc(-c4cnc5c(c4)CC[C@]5(C)N)cc3c12` [Example 327], for which, at TNFα [3] (setting [6]), the IC50 is less than 25 nM.
On the same count and under the same terms, the figure for `[2H]C([2H])([2H])N1C(=O)c2cccc(OC(F)F)c2[C@H]2C[C@@H]1c1nn3ccc(-c4cnc5c(c4)CC[C@@]5(C)N)cc3c12` [Example 328] is less than 25 nM.
`C[C@]1(O)C[C@](N)(c2ncc(-c3ccn4nc5c(c4c3)[C@@H]3C[C@H]5N(C4CC4)C(=O)c4cccc(OC(F)F)c43)cn2)C1` [Example 329]: the IC50 on TNFα [3] (setting [6]) is less than 25 nM.

What is called IC50 is the point on the concentration scale where inhibition reaches its midpoint. Usually Emax stands for the greatest response seen or fitted, relative to the assay's reference. As usually defined, the Papp A→B is the apparent permeability from the apical to the basolateral side of a cell layer. Lower therefore signals slow passage.

Values taken from patent publication US12410179B2, “Modulators of TNF alpha activity and uses thereof” (RayThera, Inc., priority 2023, dated 2025).
